Measurements: publication PMC4072508, “Genome-Wide Prediction and Validation of Peptides That Bind Human Prosurvival Bcl-2 Proteins” (PLoS Computational Biology, 2014)
pKd: −log10 of the molar value. Like-named read-outs stand apart in the source and are kept apart here. No end group written: not given here.

What was measured:
[1] = molecular target: T1, Bcl-xL (Homo sapiens, UniProt Q07817); conditions: cited from earlier work
T1 construct: myc-Bcl-xL SPOT array & FP; made in house

[2] = molecular target: T2, Mcl-1 (Homo sapiens, UniProt Q07820); conditions: read-out: Binder class, Mcl-1, cited from earlier work
T2 construct: myc-Mcl-1 SPOT array & FP; made in house
Source text: Negative control mutatio ...

[3] = molecular target: T3, Bcl-w (Homo sapiens, UniProt Q92843, Q133R); conditions: natural BH3 peptides, interactions taken from literature; read-out: Binder class, Bcl-w; cited from earlier work
T3 construct: myc-Bcl-w SPOT array & FP; made in house
T3 sequence (Q92843 with tags, fused parts or gaps Q133R): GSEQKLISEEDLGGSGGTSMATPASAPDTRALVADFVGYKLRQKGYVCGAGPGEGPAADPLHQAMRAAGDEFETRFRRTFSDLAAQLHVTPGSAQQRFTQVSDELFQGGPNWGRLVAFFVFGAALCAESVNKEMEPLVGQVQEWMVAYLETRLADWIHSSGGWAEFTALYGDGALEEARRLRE

[4] = molecular target: T4, Bcl-2 (Homo sapiens, UniProt P10415, DEL53-91); conditions: natural BH3 peptides, interactions taken from literature; read-out: Binder class, Bcl-2; cited from earlier work
T4 construct: myc- Bcl-2 FP; made in house

[5] = molecular target: T5, Bfl-1 (Homo sapiens, UniProt Q16548); conditions: natural BH3 peptides, interactions taken from literature; read-out: Binder class, Bfl-1; cited from earlier work
T5 construct: myc- Bfl-1 SPOT array & FP; made in house
T5 sequence (Q16548 with tags, fused parts or gaps): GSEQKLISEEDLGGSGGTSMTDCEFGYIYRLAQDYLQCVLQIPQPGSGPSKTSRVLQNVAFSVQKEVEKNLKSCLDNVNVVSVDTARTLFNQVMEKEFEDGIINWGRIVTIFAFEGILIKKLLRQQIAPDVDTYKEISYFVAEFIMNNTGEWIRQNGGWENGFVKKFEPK

[6] = test system: prosurvival proteins Bcl-xL, Bcl-w, Bcl-2, Mcl-1 and Bfl-1; assay: Peptide SPOT array binding, receptor not specified; design: species or system human; conditions: for Reduction in SPOT array signal when control mutations were introduced: 3aD and 3eL negative controls, receptor not specified; for SPOT array binding specificity among five prosurvival proteins: array IV
Procedure: (§1) Peptide SPOT arrays were synthesized using F-moc chemistry on nitrocellulose membranes at the MIT Biopolymers facility using an Intavis AutoSpot robot. Peptide spots were cut from the membrane, hydrated in 100% methanol, transferred to TBS (50 mM Tris, pH 8.1, 100 mM NaCl, 0.01% Triton X-100) with 1% bovine serum albumin (BSA), here called blocking buffer, and incubated at room temperature for ∼10 minutes. Membranes were then incubated with 10 ml of 1 µM or 100 nM c-Myc-tagged receptor (sequences in Table S6) in TBS for 1 h at room temperature. Membranes were then rinsed 3× with blocking buffer and then incubated with anti-c-myc-Cy3 antibody (Sigma Aldrich C6594) diluted 100-fold in blocking buffer for 1 hour at room temperature. Membranes were rinsed 3× with blocking buffer and scanned on a Typhoon 9400 (GE Healthcare). Images were analyzed with ImageQuant (GE Healthcare), and Cy3 intensity at 580 nm was averaged over a circular area that was equal in size for all spots for a given membrane. Typically, 5–10 known binders and their negative controls were included.

[7] = molecular target: T5, Bfl-1; assay: Peptide SPOT array binding
Procedure: as §1

[8] = molecular target: T2, Mcl-1; assay: Peptide SPOT array binding
Procedure: as §1

[9] = molecular target: T4, Bcl-2; assay: Peptide SPOT array binding; conditions: c-Myc-tagged receptor 1 µM or 100 nM, anti-c-myc-Cy3 read-out
Procedure: as §1

[10] = molecular target: T3, Bcl-w; assay: Peptide SPOT array binding; conditions: c-Myc-tagged receptor 1 µM or 100 nM, anti-c-myc-Cy3 read-out
Procedure: as §1

[11] = molecular target: T1, Bcl-xL; assay: Peptide SPOT array binding; conditions: c-Myc-tagged receptor 1 µM or 100 nM, anti-c-myc-Cy3 read-out
Procedure: as §1

[12] = molecular target: T4, Bcl-2; assay: Fluorescence polarization direct binding
Procedure: (§2) Peptides were purified by reverse-phase HPLC using a C18 column and a linear water/acetonitrile gradient. We re-analyzed the purified peptide by mass spectrometry if there was not a single well-defined peak in HPLC chromatogram.
(§3) Fluorescence polarization (FP) assays were done at 25°C in assay buffer (20 mM NaPO4, 50 mM NaCl, 1 mM EDTA, 0.001% Triton X (v/v), pH 7.8). […] For all FP experiments, the total well volume was 120 µl. […] Anisotropy was measured using a Spectramax M5 plate reader from Molecular Devices.
(§4) Direct binding curves were fit using Pylab/Scipy/Optimize to a single-site binding model utilized previously.
(§5) ^1Best-fit KD values determined by combining all replicate titration curves and fitting to a direct binding model (see Methods). […] Values with an X followed by a number indicate the highest concentration (the number, in nM) for which signal was measured yet no binding was detected.

[13] = molecular target: T3, Bcl-w; assay: Fluorescence polarization direct binding
Procedure: as §2, §3, §4, §5

[14] = molecular target: T1, Bcl-xL; assay: Fluorescence polarization direct binding
Procedure: as §2, §3, §4, §5

[15] = molecular target: T5, Bfl-1; assay: Fluorescence polarization direct binding
Procedure: as §2, §3, §4, §5

[16] = molecular target: T2, Mcl-1; assay: Fluorescence polarization direct binding
Procedure: as §2, §3, §4, §5

[17] = S1 Bim variants, specific binding measured using yeast display, ref Dutta et al. (2010)
[18] = natural BH3 peptides, interactions taken from literature
[19] = c-Myc-tagged receptor 1 µM or 100 nM, anti-c-myc-Cy3 read-out

T4 sequence (P10415 with tags, fused parts or gaps DEL53-91): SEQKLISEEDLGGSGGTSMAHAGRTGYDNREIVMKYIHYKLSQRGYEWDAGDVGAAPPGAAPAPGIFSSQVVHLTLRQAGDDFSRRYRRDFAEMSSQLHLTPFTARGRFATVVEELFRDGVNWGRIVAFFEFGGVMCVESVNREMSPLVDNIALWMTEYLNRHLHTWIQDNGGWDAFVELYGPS
T1 sequence (Q07817 with tags, fused parts or gaps): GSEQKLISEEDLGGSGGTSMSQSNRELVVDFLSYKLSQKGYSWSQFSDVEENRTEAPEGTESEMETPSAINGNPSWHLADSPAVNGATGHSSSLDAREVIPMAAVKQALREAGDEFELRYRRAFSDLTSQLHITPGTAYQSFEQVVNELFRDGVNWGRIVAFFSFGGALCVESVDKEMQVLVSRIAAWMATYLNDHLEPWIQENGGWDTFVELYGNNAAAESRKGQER
T2 sequence (Q07820 with tags, fused parts or gaps): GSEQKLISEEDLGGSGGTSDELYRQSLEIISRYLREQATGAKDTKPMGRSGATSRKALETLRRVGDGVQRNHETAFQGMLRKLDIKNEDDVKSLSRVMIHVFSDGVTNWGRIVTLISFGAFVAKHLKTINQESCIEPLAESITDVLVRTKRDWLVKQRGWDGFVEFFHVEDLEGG

Substance	Binder class (Kd bin) [1, 17]	pKd [2, 17]	also measured
PEIWVAQEIGRIGNEINAYYARR	> 10000 nM	> 6.00	–
IIRNIARHAAQVGASMDRSIPPG [Bid (X)]	–	–	Binder class (Kd bin) [1, 18]: > 10000 nM; pKd [2, 18]: > 6.00; pKd [3]: > 6.00; pKd [4]: > 6.00; pKd [5]: < 5.00
PEIWVAQELGRTGDEVNAYYARR	> 10000 nM	> 6.00	–
PEIWYAQEVQRIGDEVNAYYARR	> 10000 nM	> 6.00	–
PEIWVAQELKRNGDEFNAYYARR	< 1000 nM	< 5.00	–
MTQEVGQLLQDMGDDVYQQYRSL [Mule]	–	–	Reduction in SPOT array signal when control mutations were introduced [6]: more than 30%; SPOT array binding specificity among five prosurvival proteins [6]: binding specifically to Mcl-1
PEIWVAQEIGRIGDETNAYYARR	> 10000 nM	> 6.00	–
PEIWVAQELERIGEEVNAYYARR	> 10000 nM	> 6.00	–
PEIWYAQEIGRYGDEFNAYYARR	< 1000 nM	< 5.00	–
AAQRYGRELRRMSDEFVDSFKKG [Bad]	–	–	Reduction in SPOT array signal for at least one of the negative controls, Bfl-1 ([7]; 3aD / 3eL mutations): less than 25%; Reduction in SPOT array signal for at least one of the negative controls, Mcl-1 ([8]; 3aD / 3eL mutations): less than 25%
PEIWVAQEVDRIGDEVNAYYARR	> 10000 nM	> 6.00	–
PEIWYAQELRRDGDEYNAYYARR	< 1000 nM	< 5.00	–
EGEKEVEALKKSADWVSDWSSRP [BNIP3L]	–	–	SPOT array signal as % of the Bim BH3 signal, Bcl-2 [9]: less than 3%; SPOT array signal as % of the Bim BH3 signal, Bcl-w [10]: less than 3%; SPOT array signal as % of the Bim BH3 signal, Bcl-xL [11]: less than 3%; SPOT array signal as % of the Bim BH3 signal, Bfl-1 [7, 19]: 8%; SPOT array signal as % of the Bim BH3 signal, Mcl-1 [8, 19]: less than 3%
PEIWVAQEINRVGDEVNAYYARR	> 10000 nM	> 6.00	–
PEIWYAQELKRYGDENNAYYARR	< 1000 nM	< 5.00	–
PEIWVAQELGRDGDEFNAYYARR	< 1000 nM	< 5.00	–
PEIWYAQEIRRFGDEFNAYYARR	< 1000 nM	< 5.00	–
PEIWYAQELQRNGDEFNAYYARR	< 1000 nM	< 5.00	–
PEIWYAQELGRAGDEFNAYYARR	< 1000 nM	< 5.00	–
RLAEVCAVLLRLGDELEMIRPSV [Bok]	–	–	Reduction in SPOT array signal when control mutations were introduced [6]: more than 30%; SPOT array binding specificity among five prosurvival proteins [6]: binding specifically to Mcl-1

Substance	Binder class (Kd bin) [1, 17]	pKd [2, 17]	also measured
PEIWVAQELGRNGDEYNAYYARR	< 1000 nM	< 5.00	–
PEIWYAQELGRYGDEYNAYYARR	< 1000 nM	< 5.00	–
PEIWVAQELKRAGEEFNAYYARR	< 1000 nM	< 5.00	–
PEIWYAQEAKRFGDEFNAYYARR	< 1000 nM	< 5.00	–
PEIWYAQEIQRYGDEFNAYYARR	< 1000 nM	< 5.00	–
PEIWYAQEINRIGDEVNAYYARR	> 10000 nM	> 6.00	–
PEIWYAQELKRDGDEFNAYYARR	< 1000 nM	< 5.00	–
PEIWYAQEVKRYGDEYNAYYARR	< 1000 nM	< 5.00	–
PEIWYAQEIRRAGDEFNAYYARR	< 1000 nM	< 5.00	–
PEIWVAQEIERIGNEVNAYYARR	> 10000 nM	> 6.00	–
PEIWYAQELKRFGDENNAYYARR	< 1000 nM	< 5.00	–
APOL6: peptide from APOL6, putative BH3 motif (KEDLKGNIDKLRALADDIDKTHKKFT)	–	–	SPOT array signal as % of the Bim BH3 signal, Bcl-xL [11]: 17%
PEIWVAQEINRIGEEINAYYARR	> 10000 nM	> 6.00	–
PEIWYAQELGRNGDEYNAYYARR	< 1000 nM	< 5.00	–
PEIWYAQELERIGDEVNAYYARR	> 10000 nM	> 6.00	–
PEIWVAQEIRRVGDENNAYYARR	> 10000 nM	> 6.00	–
PEIWVAQELSRAGDEFNAYYARR	< 1000 nM	< 5.00	–
PEIWYAQELRRNGDEYNAYYARR	< 1000 nM	< 5.00	–
SKFVILSAHKLVFIGDTLSRQAKAAD-NH2 [BCAR1]	–	–	Kd ([12]; FP direct binding, 10 nM FAM-labeled peptide, receptor titrated, 25°C, pH 7.8, fit of all replicate titrations, X+number in a cell = highest concentration (nM) measured with no binding detected, given here as >, SPNS1 fit to raw fluorescence, read-out: Best-fit KD, Bcl-2): 2990 nM; pKd ([12]; benchmark classification of peptides newly characterized in this study, read-out: Binder class, Bcl-2): 5.00 to 6.00; Kd ([13]; FP direct binding, 10 nM FAM-labeled peptide, receptor titrated, 25°C, pH 7.8, fit of all replicate titrations, X+number in a cell = highest concentration (nM) measured with no binding detected, given here as >, SPNS1 fit to raw fluorescence, read-out: Best-fit KD, Bcl-w): 3610 nM; pKd ([13]; benchmark classification of peptides newly characterized in this study, read-out: Binder class, Bcl-w): > 6.00; Kd ([14]; FP direct binding, 10 nM FAM-labeled peptide, receptor titrated, 25°C, pH 7.8, fit of all replicate titrations, X+number in a cell = highest concentration (nM) measured with no binding detected, given here as >, SPNS1 fit to raw fluorescence, read-out: Best-fit KD, Bcl-xL): 2540 nM; pKd ([14]; benchmark classification of peptides newly characterized in this study, read-out: Binder class, Bcl-xL): 5.00 to 6.00; Kd ([15]; FP direct binding, 10 nM FAM-labeled peptide, receptor titrated, 25°C, pH 7.8, fit of all replicate titrations, X+number in a cell = highest concentration (nM) measured with no binding detected, given here as >, SPNS1 fit to raw fluorescence, read-out: Best-fit KD, Bfl-1): 4680 nM; pKd ([15]; benchmark classification of peptides newly characterized in this study, read-out: Binder class, Bfl-1): 5.00 to 6.00; pKd ([16]; Binder class, Mcl-1, benchmark classification of peptides newly characterized in this study): < 5.00; Kd ([16]; FP direct binding, 10 nM FAM-labeled peptide, receptor titrated, 25°C, pH 7.8, fit of all replicate titrations, X+number in a cell = highest concentration (nM) measured with no binding detected, given here as >, SPNS1 fit to raw fluorescence): 912 nM
